Measurements published in ChEMBL document CHEMBL5346933, “Design and synthesis of novel arylurea derivatives of aryloxy(1-phenylpropyl) alicyclic diamines with antimicrobial activity against multidrug-resistant Gram-positive bacteria” (Eur J Med Chem, 2023).
In brackets after ≈: the same amount, converted by molar mass. Activity calls are given as the source filed them. No cut-off for these calls is given here.

Test system: Klebsiella pneumoniae
Assay: Antibacterial activity against Klebsiella pneumoniae ATCC 700603 assessed as inhibition of bacterial growth incubated for 18 hrs by broth microdilution method
Format: functional
Settings: not given

Structure (SMILES)	Activity
O=C(Nc1cccc(Cl)c1)N[C@H]1CCN(CCC(Oc2ccc(Cl)cc2)c2ccccc2)C1 (some centres not stated)	inactive
O=C(Nc1cccc(Cl)c1)NC1CCN(CCC(Oc2ccc(F)cc2)c2ccccc2)CC1 (racemic)	inactive
O=C(Nc1cccc(Cl)c1)N[C@@H]1CCN(CCC(Oc2ccc(C(F)(F)F)cc2)c2ccccc2)C1 (some centres not stated)	inactive
COc1ccc(OC(CCN2CCC(NC(=O)Nc3cccc(Cl)c3)CC2)c2ccccc2)cc1 (racemic)	inactive
O=C(NCC1CCN(CCC(Oc2cccc(Cl)c2)c2ccccc2)CC1)Nc1cccc(Cl)c1 (racemic)	inactive

Test system: Staphylococcus aureus
Assay: Antibacterial activity against vancomycin-intermediate Staphylococcus aureus ATCC 700699 assessed as inhibition of bacterial growth incubated for 18 hrs by broth microdilution method
Format: functional
Settings: not given

Structure (SMILES)	MIC
O=C(Nc1cccc(Cl)c1)N[C@H]1CCN(CCC(Oc2ccc(Cl)cc2)c2ccccc2)C1 (some centres not stated)	1.56 µg/mL (≈ 3.22 µM)
O=C(Nc1cccc(Cl)c1)NC1CCN(CCC(Oc2ccc(F)cc2)c2ccccc2)CC1 (racemic)	6.25 µg/mL (≈ 13 µM)
O=C(Nc1cccc(Cl)c1)N[C@@H]1CCN(CCC(Oc2ccc(C(F)(F)F)cc2)c2ccccc2)C1 (some centres not stated)	3.12 µg/mL (≈ 6.03 µM)
COc1ccc(OC(CCN2CCC(NC(=O)Nc3cccc(Cl)c3)CC2)c2ccccc2)cc1 (racemic)	6.25 µg/mL (≈ 12.7 µM)
O=C(NCC1CCN(CCC(Oc2cccc(Cl)c2)c2ccccc2)CC1)Nc1cccc(Cl)c1 (racemic)	3.12 µg/mL (≈ 6.1 µM)

Test system: Staphylococcus aureus
Assay: Antibacterial activity against methicillin-resistant Staphylococcus aureus clinical strain 19449 assessed as inhibition of bacterial growth incubated for 18 hrs by broth microdilution method
Format: functional
Settings: not given

Structure (SMILES)	MIC
O=C(Nc1cccc(Cl)c1)N[C@H]1CCN(CCC(Oc2ccc(Cl)cc2)c2ccccc2)C1 (some centres not stated)	6.25 µg/mL (≈ 12.9 µM)
O=C(Nc1cccc(Cl)c1)NC1CCN(CCC(Oc2ccc(F)cc2)c2ccccc2)CC1 (racemic)	6.25 µg/mL (≈ 13 µM)
O=C(Nc1cccc(Cl)c1)N[C@@H]1CCN(CCC(Oc2ccc(C(F)(F)F)cc2)c2ccccc2)C1 (some centres not stated)	3.12 µg/mL (≈ 6.03 µM)
COc1ccc(OC(CCN2CCC(NC(=O)Nc3cccc(Cl)c3)CC2)c2ccccc2)cc1 (racemic)	12.5 µg/mL (≈ 25.3 µM)
O=C(NCC1CCN(CCC(Oc2cccc(Cl)c2)c2ccccc2)CC1)Nc1cccc(Cl)c1 (racemic)	6.25 µg/mL (≈ 12.2 µM)

Test system: Escherichia coli
Assay: Antibacterial activity against Escherichia coli ATCC 25922 assessed as inhibition of bacterial growth incubated for 18 hrs by broth microdilution method
Format: functional
Settings: not given

Structure (SMILES)	Activity
O=C(Nc1cccc(Cl)c1)N[C@H]1CCN(CCC(Oc2ccc(Cl)cc2)c2ccccc2)C1 (some centres not stated)	inactive
O=C(Nc1cccc(Cl)c1)NC1CCN(CCC(Oc2ccc(F)cc2)c2ccccc2)CC1 (racemic)	inactive
O=C(Nc1cccc(Cl)c1)N[C@@H]1CCN(CCC(Oc2ccc(C(F)(F)F)cc2)c2ccccc2)C1 (some centres not stated)	inactive
COc1ccc(OC(CCN2CCC(NC(=O)Nc3cccc(Cl)c3)CC2)c2ccccc2)cc1 (racemic)	inactive
O=C(NCC1CCN(CCC(Oc2cccc(Cl)c2)c2ccccc2)CC1)Nc1cccc(Cl)c1 (racemic)	inactive

Test system: Staphylococcus epidermidis
Assay: Antibacterial activity against methicillin-susceptible Staphylococcus epidermidis ATCC 12228 assessed as inhibition of bacterial growth incubated for 18 hrs by broth microdilution method
Format: functional
Settings: not given

Structure (SMILES)	MIC
O=C(Nc1cccc(Cl)c1)N[C@H]1CCN(CCC(Oc2ccc(Cl)cc2)c2ccccc2)C1 (some centres not stated)	1.56 µg/mL (≈ 3.22 µM)
O=C(Nc1cccc(Cl)c1)NC1CCN(CCC(Oc2ccc(F)cc2)c2ccccc2)CC1 (racemic)	6.25 µg/mL (≈ 13 µM)
O=C(Nc1cccc(Cl)c1)N[C@@H]1CCN(CCC(Oc2ccc(C(F)(F)F)cc2)c2ccccc2)C1 (some centres not stated)	3.12 µg/mL (≈ 6.03 µM)
COc1ccc(OC(CCN2CCC(NC(=O)Nc3cccc(Cl)c3)CC2)c2ccccc2)cc1 (racemic)	12.5 µg/mL (≈ 25.3 µM)
O=C(NCC1CCN(CCC(Oc2cccc(Cl)c2)c2ccccc2)CC1)Nc1cccc(Cl)c1 (racemic)	1.56 µg/mL (≈ 3.04 µM)

Test system: Pseudomonas aeruginosa
Assay: Antibacterial activity against Pseudomonas aeruginosa ATCC 27853 assessed as inhibition of bacterial growth incubated for 18 hrs by broth microdilution method
Format: functional
Settings: not given

Structure (SMILES)	Activity
O=C(Nc1cccc(Cl)c1)N[C@H]1CCN(CCC(Oc2ccc(Cl)cc2)c2ccccc2)C1 (some centres not stated)	inactive
O=C(Nc1cccc(Cl)c1)NC1CCN(CCC(Oc2ccc(F)cc2)c2ccccc2)CC1 (racemic)	inactive
O=C(Nc1cccc(Cl)c1)N[C@@H]1CCN(CCC(Oc2ccc(C(F)(F)F)cc2)c2ccccc2)C1 (some centres not stated)	inactive
COc1ccc(OC(CCN2CCC(NC(=O)Nc3cccc(Cl)c3)CC2)c2ccccc2)cc1 (racemic)	inactive
O=C(NCC1CCN(CCC(Oc2cccc(Cl)c2)c2ccccc2)CC1)Nc1cccc(Cl)c1 (racemic)	inactive

Test system: Staphylococcus aureus
Assay: Antibacterial activity against biofilm producer Staphylococcus aureus RN450 assessed as inhibition of bacterial growth incubated for 18 hrs by broth microdilution method
Format: functional
Settings: not given

Structure (SMILES)	MIC
O=C(Nc1cccc(Cl)c1)N[C@H]1CCN(CCC(Oc2ccc(Cl)cc2)c2ccccc2)C1 (some centres not stated)	3.12 µg/mL (≈ 6.45 µM)
O=C(Nc1cccc(Cl)c1)NC1CCN(CCC(Oc2ccc(F)cc2)c2ccccc2)CC1 (racemic)	3.12 µg/mL (≈ 6.48 µM)
O=C(Nc1cccc(Cl)c1)N[C@@H]1CCN(CCC(Oc2ccc(C(F)(F)F)cc2)c2ccccc2)C1 (some centres not stated)	1.56 µg/mL (≈ 3.01 µM)
COc1ccc(OC(CCN2CCC(NC(=O)Nc3cccc(Cl)c3)CC2)c2ccccc2)cc1 (racemic)	6.25 µg/mL (≈ 12.7 µM)
O=C(NCC1CCN(CCC(Oc2cccc(Cl)c2)c2ccccc2)CC1)Nc1cccc(Cl)c1 (racemic)	3.12 µg/mL (≈ 6.1 µM)

Test system: not listed separately
Assay: Cytotoxicity against human MRC5 cells assessed as reduction in cell viability incubated for 24 hrs by MTT assay
Format: toxicity, cell-based
Settings: not given

Structure (SMILES)	IC50 at 24 h
O=C(Nc1cccc(Cl)c1)N[C@H]1CCN(CCC(Oc2ccc(Cl)cc2)c2ccccc2)C1 (some centres not stated)	3.12 µg/mL (≈ 6.45 µM)
O=C(Nc1cccc(Cl)c1)N[C@@H]1CCN(CCC(Oc2ccc(C(F)(F)F)cc2)c2ccccc2)C1 (some centres not stated)	3.12 µg/mL (≈ 6.03 µM)
O=C(NCC1CCN(CCC(Oc2cccc(Cl)c2)c2ccccc2)CC1)Nc1cccc(Cl)c1 (racemic)	3.12 µg/mL (≈ 6.1 µM)

Test system: Staphylococcus epidermidis
Assay: Antibacterial activity against linezolid-resistant Staphylococcus epidermidis NIL 4399/19 assessed as inhibition of bacterial growth incubated for 18 hrs by broth microdilution method
Format: functional
Settings: not given

Structure (SMILES)	MIC
O=C(Nc1cccc(Cl)c1)N[C@H]1CCN(CCC(Oc2ccc(Cl)cc2)c2ccccc2)C1 (some centres not stated)	6.25 µg/mL (≈ 12.9 µM)
O=C(Nc1cccc(Cl)c1)NC1CCN(CCC(Oc2ccc(F)cc2)c2ccccc2)CC1 (racemic)	6.25 µg/mL (≈ 13 µM)
O=C(Nc1cccc(Cl)c1)N[C@@H]1CCN(CCC(Oc2ccc(C(F)(F)F)cc2)c2ccccc2)C1 (some centres not stated)	3.12 µg/mL (≈ 6.03 µM)
COc1ccc(OC(CCN2CCC(NC(=O)Nc3cccc(Cl)c3)CC2)c2ccccc2)cc1 (racemic)	6.25 µg/mL (≈ 12.7 µM)
O=C(NCC1CCN(CCC(Oc2cccc(Cl)c2)c2ccccc2)CC1)Nc1cccc(Cl)c1 (racemic)	6.25 µg/mL (≈ 12.2 µM)

Test system: not listed separately
Assay: Induction of hemolysis in horse RBC at 200 uM incubated for 1 hr
Format: toxicity, cell-based, Equus caballus, Erythrocyte
Settings: horse red blood cells (erythrocytes), read-out: Activity

Structure (SMILES)	hemolysis at 1 h, 200 µM
O=C(Nc1cccc(Cl)c1)N[C@H]1CCN(CCC(Oc2ccc(Cl)cc2)c2ccccc2)C1 (some centres not stated)	11%
O=C(Nc1cccc(Cl)c1)N[C@@H]1CCN(CCC(Oc2ccc(C(F)(F)F)cc2)c2ccccc2)C1 (some centres not stated)	9%
O=C(NCC1CCN(CCC(Oc2cccc(Cl)c2)c2ccccc2)CC1)Nc1cccc(Cl)c1 (racemic)	6%

Test system: Enterococcus faecalis
Assay: Antibacterial activity against Enterococcus faecalis ATCC 29212 assessed as inhibition of bacterial growth incubated for 18 hrs by broth microdilution method
Format: functional
Settings: not given

Structure (SMILES)	MIC
O=C(Nc1cccc(Cl)c1)N[C@H]1CCN(CCC(Oc2ccc(Cl)cc2)c2ccccc2)C1 (some centres not stated)	3.12 µg/mL (≈ 6.45 µM)
O=C(Nc1cccc(Cl)c1)NC1CCN(CCC(Oc2ccc(F)cc2)c2ccccc2)CC1 (racemic)	6.25 µg/mL (≈ 13 µM)
O=C(Nc1cccc(Cl)c1)N[C@@H]1CCN(CCC(Oc2ccc(C(F)(F)F)cc2)c2ccccc2)C1 (some centres not stated)	3.12 µg/mL (≈ 6.03 µM)
O=C(NCC1CCN(CCC(Oc2cccc(Cl)c2)c2ccccc2)CC1)Nc1cccc(Cl)c1 (racemic)	3.12 µg/mL (≈ 6.1 µM)

Test system: Staphylococcus epidermidis
Assay: Antibacterial activity against biofilm producer Staphylococcus epidermidis ATCC 35984 assessed as inhibition of bacterial growth incubated for 18 hrs by broth microdilution method
Format: functional
Settings: not given

Structure (SMILES)	MIC
O=C(Nc1cccc(Cl)c1)N[C@H]1CCN(CCC(Oc2ccc(Cl)cc2)c2ccccc2)C1 (some centres not stated)	3.12 µg/mL (≈ 6.45 µM)
O=C(Nc1cccc(Cl)c1)NC1CCN(CCC(Oc2ccc(F)cc2)c2ccccc2)CC1 (racemic)	3.12 µg/mL (≈ 6.48 µM)
O=C(Nc1cccc(Cl)c1)N[C@@H]1CCN(CCC(Oc2ccc(C(F)(F)F)cc2)c2ccccc2)C1 (some centres not stated)	1.56 µg/mL (≈ 3.01 µM)
COc1ccc(OC(CCN2CCC(NC(=O)Nc3cccc(Cl)c3)CC2)c2ccccc2)cc1 (racemic)	6.25 µg/mL (≈ 12.7 µM)
O=C(NCC1CCN(CCC(Oc2cccc(Cl)c2)c2ccccc2)CC1)Nc1cccc(Cl)c1 (racemic)	3.12 µg/mL (≈ 6.1 µM)

Test system: Staphylococcus aureus
Assay: Antibacterial activity against methicillin-susceptible Staphylococcus aureus ATCC 25923 assessed as inhibition of bacterial growth incubated for 18 hrs by broth microdilution method
Format: functional
Settings: not given

Structure (SMILES)	MIC
O=C(Nc1cccc(Cl)c1)N[C@H]1CCN(CCC(Oc2ccc(Cl)cc2)c2ccccc2)C1 (some centres not stated)	6.25 µg/mL (≈ 12.9 µM)
O=C(Nc1cccc(Cl)c1)NC1CCN(CCC(Oc2ccc(F)cc2)c2ccccc2)CC1 (racemic)	6.25 µg/mL (≈ 13 µM)
O=C(Nc1cccc(Cl)c1)N[C@@H]1CCN(CCC(Oc2ccc(C(F)(F)F)cc2)c2ccccc2)C1 (some centres not stated)	3.12 µg/mL (≈ 6.03 µM)
COc1ccc(OC(CCN2CCC(NC(=O)Nc3cccc(Cl)c3)CC2)c2ccccc2)cc1 (racemic)	12.5 µg/mL (≈ 25.3 µM)
O=C(NCC1CCN(CCC(Oc2cccc(Cl)c2)c2ccccc2)CC1)Nc1cccc(Cl)c1 (racemic)	6.25 µg/mL (≈ 12.2 µM)

Test system: not listed separately
Assay: Cytotoxicity against human BJ cells assessed as reduction in cell viability incubated for 24 hrs by MTT assay
Format: toxicity, cell-based
Settings: not given

Structure (SMILES)	IC50 at 24 h
O=C(Nc1cccc(Cl)c1)N[C@H]1CCN(CCC(Oc2ccc(Cl)cc2)c2ccccc2)C1 (some centres not stated)	6.25 µg/mL (≈ 12.9 µM)
O=C(Nc1cccc(Cl)c1)N[C@@H]1CCN(CCC(Oc2ccc(C(F)(F)F)cc2)c2ccccc2)C1 (some centres not stated)	3.12 µg/mL (≈ 6.03 µM)
O=C(NCC1CCN(CCC(Oc2cccc(Cl)c2)c2ccccc2)CC1)Nc1cccc(Cl)c1 (racemic)	6.25 µg/mL (≈ 12.2 µM)

Test system: Enterococcus faecium
Assay: Antibacterial activity against vancomycin-resistant Enterococcus faecium assessed as inhibition of bacterial growth incubated for 18 hrs by broth microdilution method
Format: functional
Settings: not given

Structure (SMILES)	MIC
O=C(Nc1cccc(Cl)c1)N[C@H]1CCN(CCC(Oc2ccc(Cl)cc2)c2ccccc2)C1 (some centres not stated)	3.12 µg/mL (≈ 6.45 µM)
O=C(Nc1cccc(Cl)c1)NC1CCN(CCC(Oc2ccc(F)cc2)c2ccccc2)CC1 (racemic)	1.56 µg/mL (≈ 3.24 µM)
O=C(Nc1cccc(Cl)c1)N[C@@H]1CCN(CCC(Oc2ccc(C(F)(F)F)cc2)c2ccccc2)C1 (some centres not stated)	1.56 µg/mL (≈ 3.01 µM)
O=C(NCC1CCN(CCC(Oc2cccc(Cl)c2)c2ccccc2)CC1)Nc1cccc(Cl)c1 (racemic)	1.56 µg/mL (≈ 3.04 µM)

Test system: Streptococcus pneumoniae
Assay: Antibacterial activity against Streptococcus pneumoniae ATCC 49619 assessed as inhibition of bacterial growth incubated for 18 hrs by broth microdilution method
Format: functional
Settings: not given

Structure (SMILES)	MIC
O=C(Nc1cccc(Cl)c1)N[C@H]1CCN(CCC(Oc2ccc(Cl)cc2)c2ccccc2)C1 (some centres not stated)	6.25 µg/mL (≈ 12.9 µM)
O=C(Nc1cccc(Cl)c1)NC1CCN(CCC(Oc2ccc(F)cc2)c2ccccc2)CC1 (racemic)	12.5 µg/mL (≈ 25.9 µM)
O=C(Nc1cccc(Cl)c1)N[C@@H]1CCN(CCC(Oc2ccc(C(F)(F)F)cc2)c2ccccc2)C1 (some centres not stated)	6.25 µg/mL (≈ 12.1 µM)
COc1ccc(OC(CCN2CCC(NC(=O)Nc3cccc(Cl)c3)CC2)c2ccccc2)cc1 (racemic)	> 12.5 µg/mL
O=C(NCC1CCN(CCC(Oc2cccc(Cl)c2)c2ccccc2)CC1)Nc1cccc(Cl)c1 (racemic)	6.25 µg/mL (≈ 12.2 µM)
